US11479536B1 (King Abdulaziz University, priority 2022, dated 2022)
Values joined by “and” are separate entries in the source; they are usually repeats but may differ in a detail not shown here. Equal values may be shown once. Values belong to the molecule of their own block, whether it stands above or below them.

Columns and labels:
T47D spheroids [1] = test: Reactive oxygen species (CellROX) assay, T47D spheroids; format: cell-based, human; conditions: 48 h treatment, CellROX Green
Experimental: (§1) The CELLROX (Invitrogen) assay was used to measure the level of reactive oxygen species (ROS) in live cells. […] The technique was used to investigate the capability of tested compounds to induce intracellular ROS. After forming the spheroids for 48 hours and treating them for additional 48 hours with MAK compound, spheroids were incubated in culture medium with 500 nM CellROX for 60 minutes at 37° C. in presence of 5% CO2, and the samples were immediately analyzed on flow cytometry using 488-nm excitation for the CellROX® Green.

MCF7 spheroids [2] = test: Cytotoxicity assay (MTT) in spheroid culture, MCF7; format: cell-based, human
Experimental: (§2) 1×10^4 cells of each cell line (MCF7 and T47D) were seeded into ultra-low attachment 96 well plate at 37° C. and grown for 48 hours in DMEM media to result in the formation of spheroids. Then, the cells were subjected to the different treatment conditions before performing the assays.
(§3) The cytotoxic effects of MAK compounds were assessed against MCF7 and T47D cell lines using MTT cell viability assay. The cells were treated for 48 hours with different concentrations of each MAK compound and the control cells were subjected to the vehicle (0.1% DMSO). Then, 10% of 5 mg/mL MTT was added to each well containing treated or control cells, and mixture was incubated at 37° C. for 3 hours. After that, the MTT-containing media was replaced with 100 μL DMSO and incubated for 10 minutes at room temperature before measuring the absorbance for each well at 570 nm. According to the measured absorbance, the IC50 was calculated for each compound. All the experiments were performed in biological and experimental replicates.

AMPK (A1/B1/G2) = biological target: T1, AMPK (A1/B1/G2) (Homo sapiens, UniProt Q13131+Q9UGJ0+Q9Y478); test: Cell-free AMPK inhibition assay, AMPK (A1/B1/G2) Kinase Enzyme system; format: biochemical; conditions: recombinant full-length human AMPK
T1 construct: This system includes a recombinant full-length human AMPK enzyme; purchased Promega
Experimental: The inhibitory effect of serial concentrations of MAK compounds on AMPK Kinase activity was investigated using the highly sensitive AMPK (A1/B1/G2) Kinase Enzyme assay system (Promega, Madison Wis. USA). This system includes a recombinant full-length human AMPK enzyme and a substrate for the enzyme. The experiment was conducted according to the manufacturer's instructions in the provided protocol. Mean values of replicates were calculated in comparison to the control group.

[3] = test system: human skin fibroblasts (HSF); test: Cytotoxicity on human skin fibroblasts (SRB method); format: cell-based; conditions: HSF, SRB, 72 h
Experimental: In addition to have a good physicochemical profile, it is important for a studied lead to differentiate between cancer cells and highly proliferating non-cancerous cells. Therefore, we assessed compounds MAK-1 and MAK-6 for both the in silico and in vitro physicochemical characteristics as well as for cytotoxic effect on human skin fibroblasts (SKF) cell lines. Cytotoxicity was determined using Sulforhodamine B (SRB) method. Exponentially growing human skin fibroblast cells (Nawah Scientific, Cairo, Egypt) were collected using 0.25% Trypsin-EDTA and were then seeded in 96-well plates at a density of 1000-2000 cells/well in 10% FBS and penicillin/streptomycin supplemented RPMI-1640 medium. After 24 h, cells were treated with different concentrations of test compounds and incubated for 72 h at 37° C. in a humidified atmosphere containing 5% CO2. Next, the cells were fixed by adding trichloroacetic acid (TCA, 10% final conc. in wells) directly to the wells and incubated for 1 h at 4° C., then cells were washed with distilled water 5 times to remove excess TCA, media, serum proteins, and metabolites, followed by air drying. After that, the fixed cells were stained with 0.4% SRB dissolved in 1% acetic acid for 10 min at room temperature, and excess stain was removed by quickly rinsing with 1% acetic acid. The residual acetic acid was removed completely by air drying the plates for 24 h, and the dye was solubilized with Tris buffer (pH=7.4, 10 mM) for 5 min on a shaker at 1600 rpm. The optical density (OD) of each well was measured spectrophotometrically at 564 nm with an ELISA microplate reader (ChroMate-4300, FL, USA). The IC50 values were calculated according to the equation for Boltzman sigmoidal concentration—response curve using the nonlinear regression fitting models (Graph Pad, Prism Version 5).

MCF7 cell line = test: Cytotoxic assay (MTT) in monolayer model, MCF7; format: cell-based; conditions: Homo sapiens, 48 h, read-out: IC50 MCF-7 cell line inhibition, monolayer
Experimental: (§4) 1×10^6 cells of the human breast cancer cell lines MCF7 and T47D were seeded and grown at 37° C. with 5% CO2, in a Dulbecco's Modified Eagle Medium (DMEM) with 10% fetal bovine serum (Sigma). The cells were maintained until they reached the confluence over 90%. Then, the cells were subjected to the different treatment conditions before performing the assays.
as §3

MCF7 spheroids [4] = test: Mitochondrial membrane potential assay (JC-1), MCF7 spheroids; format: cell-based, human; conditions: 48 h post treatment at IC50, control 18.01±0.58%
Experimental: (§5) The mitochondrial membrane potential was investigated in response to the treatment with MAK compounds. This assay depends on the measurement of the aggregate fluorescence for Tetraethylbenzimidazolylcarbocyanine iodide (JC-1). This cationic dye accumulates in the energized mitochondria, and the increase in aggregate fluorescence indicates mitochondrial […] while the reduction indicates the depolarization state.
(§6) After growing the cells and treating them with MAK compound for 48 hours, 2 μM of JC-1 final concentration was added and the mixture was incubated for 1 hour at 37° C. in presence of 5% CO2. Then, the samples were analyzed using flow cytometry. Mean values and standard deviation of replicates were calculated in comparison to the control group.

T47D spheroids [5] = test: Cytotoxicity assay (MTT) in spheroid culture, T47D; format: cell-based, human
Experimental: as §2, §3

MCF7 spheroids [6] = test: Reactive oxygen species (CellROX) assay, MCF7 spheroids; format: cell-based, human; conditions: 48 h treatment, CellROX Green
Experimental: as §1

T47D spheroids [7] = test: Live and dead assay of tumor spheroids, T47D; format: cell-based, human; conditions: 48 h post treatment, control 2.60±0.31%
Experimental: (§7) The Live/Dead assay contains a mixture of two staining fluorescent dyes that label live and dead cells to enable differentiation between them. The cell viability of the cells in response to the treatment with MAK compounds was examined. The cells were grown for 48 hours and treated with MAK compound for additional 48 hours, then Cytox RED solution reagent was added. After incubation at 37° C. under 5% CO2 for 1 hour, the samples were immediately analyzed by flow cytometry. Mean values and standard deviation of replicates were calculated in comparison to the control group.

MCF7 spheroids [8] = test: Live and dead assay of tumor spheroids, MCF7; format: cell-based, human; conditions: 48 h post treatment, control 10.33±2.40%
Experimental: as §7

T47D spheroids [9] = test: Mitochondrial membrane potential assay (JC-1), T47D spheroids; format: cell-based, human; conditions: 48 h post treatment at IC50, control 15.67±2.05%
Experimental: as §5, §6

T47D cell line = test: Cytotoxic assay (MTT) in monolayer model, T47D; format: cell-based; conditions: Homo sapiens, 48 h, read-out: IC50 cytotoxic assay against T47D, monolayer
Experimental: as §4, §3

MCF7 cell lines = test: Cytotoxic assays of KAC-12 on breast cancer MCF7 cell lines; format: cell-based, human
AMPK (phospho-protein) = conditions: concentration not given; cited from earlier work

T1 sequence (Q13131 whole entry): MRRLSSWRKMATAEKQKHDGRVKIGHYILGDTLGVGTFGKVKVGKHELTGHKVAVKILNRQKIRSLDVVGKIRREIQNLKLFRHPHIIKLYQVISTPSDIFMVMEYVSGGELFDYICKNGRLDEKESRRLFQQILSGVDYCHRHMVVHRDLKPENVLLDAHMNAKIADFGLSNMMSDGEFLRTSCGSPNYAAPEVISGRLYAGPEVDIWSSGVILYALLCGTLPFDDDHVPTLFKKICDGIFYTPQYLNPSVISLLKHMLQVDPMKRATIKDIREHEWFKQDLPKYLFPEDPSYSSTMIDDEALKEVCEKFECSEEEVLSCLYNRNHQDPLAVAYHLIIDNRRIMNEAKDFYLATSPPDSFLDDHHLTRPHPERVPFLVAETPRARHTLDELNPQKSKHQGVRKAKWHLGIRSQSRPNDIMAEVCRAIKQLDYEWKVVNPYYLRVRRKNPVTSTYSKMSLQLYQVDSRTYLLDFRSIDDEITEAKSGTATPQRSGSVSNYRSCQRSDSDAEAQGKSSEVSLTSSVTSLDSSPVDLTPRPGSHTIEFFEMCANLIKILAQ
T1 sequence (Q9Y478 whole entry partner): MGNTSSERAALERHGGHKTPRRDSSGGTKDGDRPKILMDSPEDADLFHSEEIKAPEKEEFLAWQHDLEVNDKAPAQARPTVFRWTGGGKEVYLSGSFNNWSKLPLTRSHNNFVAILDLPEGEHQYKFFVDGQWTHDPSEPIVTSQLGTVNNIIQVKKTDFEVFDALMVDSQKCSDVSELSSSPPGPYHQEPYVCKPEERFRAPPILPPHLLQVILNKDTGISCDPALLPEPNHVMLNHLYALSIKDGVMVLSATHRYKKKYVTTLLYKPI
T1 sequence (Q9UGJ0 whole entry partner): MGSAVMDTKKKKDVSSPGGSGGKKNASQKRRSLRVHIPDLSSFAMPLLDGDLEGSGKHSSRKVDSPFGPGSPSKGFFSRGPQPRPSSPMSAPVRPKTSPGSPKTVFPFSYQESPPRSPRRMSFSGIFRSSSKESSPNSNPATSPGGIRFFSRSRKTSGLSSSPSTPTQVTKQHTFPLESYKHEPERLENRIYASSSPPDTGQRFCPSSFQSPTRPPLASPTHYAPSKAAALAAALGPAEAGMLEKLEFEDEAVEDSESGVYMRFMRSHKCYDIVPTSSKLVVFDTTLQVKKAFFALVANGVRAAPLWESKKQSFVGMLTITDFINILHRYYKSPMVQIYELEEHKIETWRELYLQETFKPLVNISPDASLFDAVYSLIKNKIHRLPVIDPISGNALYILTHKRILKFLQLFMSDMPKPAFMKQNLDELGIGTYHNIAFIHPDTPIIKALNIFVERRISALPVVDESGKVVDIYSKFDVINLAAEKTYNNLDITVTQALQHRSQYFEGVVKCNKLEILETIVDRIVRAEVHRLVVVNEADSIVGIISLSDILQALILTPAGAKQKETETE

Structure (SMILES): COc1cccc(C(=O)Nc2cccnc2CC(=O)NCc2ccccc2)c1
ROS level, treatment vs control (T47D spheroids [1]): 30% | IC50 (MCF7 spheroids [2]; Homo sapiens, MCF7, 3D spheroid model, 48 h, MTT): 19600 ± 525 nM | reduction of spheroid size (MCF7 spheroids [2]; MCF7 spheroids treated at IC50 for 48 h, vs control): noticeable reduction | IC50 (AMPK (A1/B1/G2)): 5.8 nM | safety to normal cells (human skin fibroblasts) [3]: highly safe | IC50 (MCF7 cell line): 148 nM | depolarized cells (mitochondrial membrane), mean±SEM (MCF7 spheroids [4]): 34.00±0.87% | IC50 (T47D spheroids [5]; Homo sapiens, T47D, 3D spheroid model, 48 h, MTT): 3720 ± 30 nM | reduction of spheroid size (T47D spheroids [5]; T47D spheroids treated at IC50 for 48 h, vs control): noticeable reduction | ROS level, treatment vs control (MCF7 spheroids [6]): 25% | dead rate (dead cells), mean±SEM (T47D spheroids [7]): 32.10±0.56% | dead rate (dead cells), mean±SEM (MCF7 spheroids [8]): 36.48±0.39% | depolarized cells (mitochondrial membrane), mean±SEM (T47D spheroids [9]): 36.77±0.65% | IC50 (T47D cell line): 97 nM

Structure (SMILES): O=C(Cc1ccc(NC(=O)c2cccc(Cl)c2)cc1)NCc1ccccc1 [KAC-12]
IC50 (MCF7 cell lines): 47700 nM | downregulation of the activated AMPK signal (phosphoprotein) (AMPK (phospho-protein)): 15% and 13%

Structure (SMILES): O=C(Cc1ccc(NC(=O)c2cccc(OCCN3CCOCC3)c2)cc1)NCc1ccccc1 [MAK-3, N-(4-(2-(benzylamino)-2-oxoethyl)phenyl)-3-(2-morpholinoethoxy)benzamide]
IC50 (T47D cell line): 1 nM

Structure (SMILES): O=C(Cc1ccc(NC(=O)c2cncc(Cl)c2)cc1)NCc1ccccc1 [MAK-9, N-(4-(2-(benzylamino)-2-oxoethyl)phenyl)-5-chloronicotinamide]
melting point: 231 °C

Now from value to molecule, other results behind:

melting point: 215 °C
Structure (SMILES): COc1ccc(C(=O)Nc2ccc(CC(=O)NCc3ccccc3)cc2)cc1OC [MAK-2, N-(4-(2-(benzylamino)-2-oxoethyl)phenyl)-3,4-dimethoxybenzamide]
IC50 (MCF7 cell line): 6 nM

melting point: 186 °C
Structure (SMILES): COc1ccc(C(=O)Nc2ccc(CC(=O)NCc3ccccc3)cc2)cc1Cl [MAK-4, N-(4-(2-(benzylamino)-2-oxoethyl)phenyl)-3-chloro-4-methoxybenzamide]
IC50 (MCF7 cell line): 225 nM

melting point: 147 °C
Structure (SMILES): O=C(Cc1ccc(NC(=O)c2ccc(OCCN3CCOCC3)c(Cl)c2)cc1)NCc1ccccc1 [MAK-5, N-(4-(2-(benzylamino)-2-oxoethyl)phenyl)-3-chloro-4-(2-morpholinoethoxy)benzamide]

melting point: 217 °C
Structure (SMILES): O=C(Cc1ccc(NC(=O)c2ccc(Cl)o2)cc1)NCc1ccccc1 [MAK-10, N-(4-(2-(benzylamino)-2-oxoethyl)phenyl)-5-chlorofuran-2-carboxamide]
IC50 (MCF7 cell line): 225 nM
